The values below are quoted from earlier work in US20200179438A1, “BLOOD GLUCOSE SPIKE SUPPRESSOR, FOOD PRODUCT, AND METHOD FOR PRODUCING BLOOD GLUCOSE SPIKE SUPPRESSOR” (priority 2017, published 2020).

The conditions of the series: for time until HB purity decreases after its increase: oral administration.

With `C[C@@H](O)CC(=O)O` [HB, (R)-3-hydroxybutyric acid], the “time until HB purity decreases after its increase” value was “within several hours”.
For the molecule `C[C@@H](O)CCOC(=O)C[C@@H](C)O` [KE], the “time until HB purity decreases after its increase” value is on record as “within several hours”. Moreover, the “HB purity in the blood after oral administration” value (oral, reached in several minutes) is “several millimolar”.
